Assay results: publication PMC6753678, “Fueling Open Innovation for Malaria Transmission-Blocking Drugs: Hundreds of Molecules Targeting Early Parasite Mosquito Stages” (Frontiers in Microbiology, 2019)
Like-named read-outs stand apart in the source and are kept apart here.

Experiments:
[1] = tested on: 3D7-strain P. falciparum asexual parasites; assay: P. falciparum asexual growth inhibition assay (Pf GIA); assay type: cell-based, Plasmodium falciparum
Method in brief: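 LDH readout: absorbance at 650 nm after 10 min at room temperature with lactate/APAD/NBT/diaphorase mix on thawed plates. Cultures (0.25% parasitemia, 2% hematocrit) were treated 72 h at 37°C in low-oxygen gas. Inhibition was normalised to 50 μM chloroquine and DMSO; n=3 biological replicates.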

[2] = tested on: HepG2 cells; assay: HepG2 cytotoxicity assay; conditions: for IC50: read-out: HepG2 cytotoxicity assay IC50, dose response confirmation; for HepG2 cytoxicity: value reported with the Pb ODA screen
Method in brief: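 Cells are plated at 2,500 per well on compound-treated plates in MEM containing 10% fetal bovine serum and 1% NEAA, then incubated 48 h at 37°C.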

[3] = tested on: P. berghei ookinete development; conditions: for % inhibition, Replicate A / % inhibition, Replicate B: primary screen at 1 μM
[4] = tested on: P. falciparum late stage (stages IV-V) gametocytes; parameters: method as in Almela et al 2016; conditions: ref Almela et al 2016, read-out: Pf GCT ATP IC50, cited from earlier work
[5] = tested on: P. falciparum female gametocytes; parameters: method as in Miguel-Blanco et al 2017; conditions: ref Miguel-Blanco et al 2017, read-out: Pf FGAA IC50, cited from earlier work
[6] = tested on: HepG2 cells; conditions: cited from earlier work
[7] = tested on: P. falciparum female gametocytes; assay: P. falciparum female gametogenesis assay (Pf FGAA); conditions: 1: YES; 0: NO
[8] = tested on: P. falciparum late stage (stages IV-V) gametocytes; assay: P. falciparum late stage gametocyte ATP depletion assay (Pf GC-ATP); conditions: 1: YES; 0: NO
[9] = tested on: P. berghei ookinete development; assay: microbe, parasite or virus in culture; conditions: Plasmodium berghei
[10] = dose response confirmation, read-out: Pf asexual growth inhibition assays IC50
[11] = read-out: Pb ODA IC50, this manuscript
[12] = read-out: Pb Ookinete development assay IC50, dose response confirmation
[13] = HepG2 cytotoxicity unified across the three screens
[14] = value reported with the Pf FGAA screen, ref Miguel-Blanco et al 2017
[15] = value reported with the Pf GCT ATP screen, ref Almela et al 2016

Row | SMILES | IC50 [1, 10] [nM] | IC50 [2] [nM] | Is compound selective in assay? Pb ODA active? ([3]; 1: YES, 0: NO) | % inhibition, Replicate A [3] [%] | % inhibition, Replicate B [3] [%] | IC50 [3, 11] [nM] | IC50 [3, 12] [nM] | Is compound selective in assay? Pf FGAA active? [7] | Is compound selective in assay? Pf GC-ATP active? [8] | Unified cytotox [2, 13] [µM] | HepG2 cytoxicity ([2]; this manuscript) [µM] | IC50 ([4]; TCAMS screen comparison) [nM] | IC50 ([5]; TCAMS screen comparison) [nM] | HepG2 cytoxicity [6, 14] [µM] | HepG2 cytoxicity [6, 15] [µM] | further results
1 | Cl.c1ccc2c(NCCCCCCCCCNc3c4ccccc4nc4ccccc34)c3ccccc3nc2c1 [TCMDC-124286] | 349 | 5500 | 0 (0: NO) | 34.80 | 55.23 | 2030 | 2030 | 0 (0: NO) | 0 (0: NO) |  |  |  |  |  |  | HepG2 cytoxicity (Pb ODA, this manuscript) ([2]; HepG2, this manuscript): 5.50 µM; Unified cytotox ([2]; HepG2 values of the three screens unified): 5.50 µM; IC50 [4]: 1500 nM; IC50 [5]: 1800 nM; HepG2 cytoxicity (Pf GCT ATP screen) ([6]; HepG2, ref Almela et al 2016): 6.1 µM; HepG2 cytoxicity (Pf FGAA screen) ([6]; HepG2, ref Miguel-Blanco et al 2017): 4.90 µM
2 | C[C@@H]1C[C@@H]([C@H](O)CC2CC(=O)NC(=O)C2)C(=O)[C@@H](C)C1 [TCMDC-125838] |  | 100000 |  |  |  |  |  |  |  |  |  |  |  |  |  | IC50 ([1]; Plasmodium falciparum, 3D7, read-out: Pf asexual growth inhibition assays IC50): 596 nM; Unified cytotox ([2]; unified HepG2 value across the three screens): 100.00 µM; Is compound selective in assay? Pb ODA active? [3]: 1 (key: 1: YES; 0: NO); inhibition at 1 µM ([9]; read-out: % inhibition, Replicate A): 110%; inhibition at 1 µM ([9]; read-out: % inhibition, Replicate B): 117%; IC50 ([9]; read-out: Pb ODA IC50 (µM)): 0.11 µM; IC50 ([9]; read-out: Pb Ookinete development assay IC50): 0.109 µM
3 | CCc1c(CCNCCCCCCNCCc2ccc([N+](=O)[O-])cc2)ccc(OC)c1OC.Cl [TCMDC-132066] | 675 | 5130 | 0 (0: NO) | 25.72 | 55.23 | 6610 | 6600 | 0 (0: NO) | 1 (1: YES) | 5.46 | 5.13 | 540 | 1460 | 4.57 | 6.67 | 
4 | COc1cc(-c2cc(-c3ccc(S(C)(=O)=O)cc3)cnc2N)ccc1O [TCMDC-133343] | 242 | 57500 | 1 (1: YES) | 63.88 | 36.72 | 2110 | 2110 | 1 (1: YES) | 1 (1: YES) | 49.62 | 57.54 | 1240 | 390 | 41.69 | >25 | 
5 | Cc1occc1C(=O)Nc1nc(-c2ccccn2)nc2ccsc12 [TCMDC-135244] | 656 | 870 | 0 (0: NO) | 79.17 | 64.59 | 1340 | 1340 | 1 (1: YES) | 0 (0: NO) | 0.87 |  | 300 | 60 | >100 | <1.56 | 
6 | CC(=O)c1ccc2nc[nH]c(=O)c2c1 [TCMDC-138172] | 287 | 1240 | 0 (0: NO) | 76.19 | 65.80 | 500 | 503 | 0 (0: NO) | 0 (0: NO) | 3.74 | 1.24 | 400 | 980 | 6.24 | <1.56 | 
7 | C=CCC1OC(=O)c2cc(OC)cc(OC)c21 (stereo not shown) [TCMDC-138677] | 447 | 2570 | 0 (0: NO) | 53.73 | 47.60 | 2360 | 2360 | 0 (0: NO) | 0 (0: NO) | 2.43 | 2.57 | 600 | 360 | 2.29 | <1.56 | 
8 | CC1(C)CC(NCCCCCCCOc2ccc(OCc3ccccc3)cc2)CC(C)(C)N1.Cl [TCMDC-138958] |  |  |  | 59.61 | 10.57 |  |  | 0 (0: NO) | 0 (0: NO) | 2.88 |  | 680 | 1230 | 2.75 | 3 | 
9 | ON=C1CCc2cc(-c3cc(-c4ccc(OC5CCNCC5)cc4)oc3-c3ccncc3)ccc21 [TCMDC-141381] | 123 | 5250 | 0 (0: NO) | 75.99 | 61.54 | 1410 | 1410 | 1 (1: YES) | 1 (1: YES) | 5.92 | 5.25 | 270 | 200 | 5.01 | 7.5 | 
10 | O=C(O)CCSSc1cccc[n+]1[O-] [TCMDC-141973] | 1650 | 30900 | 1 (1: YES) | 62.58 | 47.23 | 1910 | 1910 | 1 (1: YES) | 1 (1: YES) | 19.25 | 30.90 | 270 | 40 | 19.05 | 7.8 | 
